From paper PMC5242352 (Iranian Journal of Pharmaceutical Research : IJPR, 2016) come the findings set out here.

The target of the assay is Jack bean urease (Canavalia ensiformis, UniProt P07374). The experiment in a line: Urease inhibition assay. The class given is biochemical.

Values joined by “and” are separate entries in the source; they are usually repeats but may differ in a detail not shown here. Equal values may be shown once. Read-outs that look alike come from different tables or passages of the source.

Sequence of Jack bean urease (P07374 whole entry, looked up): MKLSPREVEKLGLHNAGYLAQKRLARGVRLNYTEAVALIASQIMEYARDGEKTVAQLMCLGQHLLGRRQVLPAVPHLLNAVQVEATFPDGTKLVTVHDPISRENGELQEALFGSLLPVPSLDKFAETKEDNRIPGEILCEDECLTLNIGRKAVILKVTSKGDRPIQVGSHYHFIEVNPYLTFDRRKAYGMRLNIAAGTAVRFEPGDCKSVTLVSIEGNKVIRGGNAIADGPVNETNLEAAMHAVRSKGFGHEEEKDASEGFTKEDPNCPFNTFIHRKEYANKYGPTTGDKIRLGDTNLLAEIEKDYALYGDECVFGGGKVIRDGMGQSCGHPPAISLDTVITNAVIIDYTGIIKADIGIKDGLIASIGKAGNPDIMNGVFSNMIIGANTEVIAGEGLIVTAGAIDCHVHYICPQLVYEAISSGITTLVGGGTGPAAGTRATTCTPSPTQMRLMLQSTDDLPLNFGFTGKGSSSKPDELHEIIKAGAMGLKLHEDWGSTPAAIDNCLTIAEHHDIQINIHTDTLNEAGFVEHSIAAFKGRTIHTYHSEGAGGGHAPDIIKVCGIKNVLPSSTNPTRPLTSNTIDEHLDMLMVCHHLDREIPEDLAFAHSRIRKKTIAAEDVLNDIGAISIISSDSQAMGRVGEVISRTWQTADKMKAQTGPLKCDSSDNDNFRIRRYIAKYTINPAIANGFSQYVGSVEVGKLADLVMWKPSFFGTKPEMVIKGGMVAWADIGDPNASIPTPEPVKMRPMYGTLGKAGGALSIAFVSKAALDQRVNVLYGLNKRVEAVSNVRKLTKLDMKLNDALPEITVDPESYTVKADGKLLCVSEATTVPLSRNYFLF

For the compound `CC1(C)CC(=O)C2=C(C1)Nc1[nH]c(=O)[nH]c(=O)c1C21C(=O)Nc2ccccc21` (centres unmarked) [7a, 8',8'-Dimethyl-8',9'-dihydro-1'H-spiro [indoline-3,5'-pyrimido[4,5-b]quinoline]-2,2',4', 6'(3'H,7'H,10'H)-tetraone], the IC50 (usually the midpoint of a concentration-inhibition curve) (IC50 (urease inhibitory activity), 37 °C, 30 minutes, read at 625 nm, triplicate) was 7.44 µM and 2.81 µM.
With `NC(=O)NO` [hydroxyurea, reference compound], the IC50 (read-out: IC50 (urease inhibitory activity), 37 °C, 30 minutes, read at 625 nm, triplicate) is 100 µM.
